Source: patent publication US11161846B2, “Substituted pyrazolo[4,3-b]pyridines and their use as GluN2B receptor modulators” (JANSSEN PHARMACEUTICA NV, priority 2019, dated 2021)

Target: T1, human GluN1/GluN2B NMDA receptors (Homo sapiens, UniProt Q05586+Q13224)
T1 construct: expressed in transfected cells
Assay: Calcium flux (FLIPR) assay on cloned human NR1/GluN2B ion channels expressed in mammalian cells, standard assay
Type: cell-based
Conditions: glutamate ~EC40 and 10 μM glycine, stable cell line with Tet-On induced expression
Procedure: Effects of Test Articles on Cloned Human NR1/GluN2B Ion Channels Expressed in Mammalian Cells
NMDA receptors are ion channels that are highly permeable to Ca^2+ ions, rendering it possible to monitor NMDA receptor function using cell-based calcium flux assay. In this assay, co-agonists glutamate and glycine are added to cells heterologously expressing human GluN1/GluN2B NMDA receptors to initiate cellular Ca^2+ influx. The time course of the changes in intracellular calcium is measured using a fluorescent dye and a FLIPR (Fluorometric Imaging Plate Reader) device.
Twenty four hours before measurements, the expression of the NMDA receptors in the stable cell line is induced with Tet-On inducible system in the presence of a non-selective NMDA receptor blocker. On the day of the experiment, cell culture media is carefully washed and the cells are loaded with Calcium 5 Dye Kit (Molecular Devices) in dye loading buffer containing 137 mM NaCl, 4 mM KCl, 2 mM CaCl2, 0.5 mM MgCl2 (standard assay) or 1.5 mM MgCl2 (HTS assay), 10 mM HEPES and 5 mM D-glucose; pH 7.4. After 1 h incubation at the room temperature, the dye is washed away with the assay buffer (137 mM NaCl (standard assay) or 150 mM (HTS assay), 4 mM KCl (standard assay) or 3 mM (HTS assay), 2 mM CaC2, 0.01 mM EDTA, 10 mM HEPES and 5 mM D-glucose; pH 7.4) In the FLIPR TETRA reader, various concentrations of the test compounds are added to the cells for 5 min while fluorescence is monitored to detect potential agonist activity. Next, co-agonists, glutamate and glycine are added for another 5 minutes. The concentration of glutamate corresponding to ˜EC40 (standard assay) or EC40 (HTS assay) is used to maximize the assay's signal window and ability to detect NMDA receptor antagonists and negative allosteric modulators. A saturating concentration (10 μM) of glycine is also present in the assay. A non-selective NMDA receptor antagonist, (+)MK-801 is used as a positive control for antagonist activity. The fluorescent signal in the presence of test compounds is quantified and normalized to the signal defined by the appropriate control wells.

T1 sequence (Q13224 27-1484, other chains not shown): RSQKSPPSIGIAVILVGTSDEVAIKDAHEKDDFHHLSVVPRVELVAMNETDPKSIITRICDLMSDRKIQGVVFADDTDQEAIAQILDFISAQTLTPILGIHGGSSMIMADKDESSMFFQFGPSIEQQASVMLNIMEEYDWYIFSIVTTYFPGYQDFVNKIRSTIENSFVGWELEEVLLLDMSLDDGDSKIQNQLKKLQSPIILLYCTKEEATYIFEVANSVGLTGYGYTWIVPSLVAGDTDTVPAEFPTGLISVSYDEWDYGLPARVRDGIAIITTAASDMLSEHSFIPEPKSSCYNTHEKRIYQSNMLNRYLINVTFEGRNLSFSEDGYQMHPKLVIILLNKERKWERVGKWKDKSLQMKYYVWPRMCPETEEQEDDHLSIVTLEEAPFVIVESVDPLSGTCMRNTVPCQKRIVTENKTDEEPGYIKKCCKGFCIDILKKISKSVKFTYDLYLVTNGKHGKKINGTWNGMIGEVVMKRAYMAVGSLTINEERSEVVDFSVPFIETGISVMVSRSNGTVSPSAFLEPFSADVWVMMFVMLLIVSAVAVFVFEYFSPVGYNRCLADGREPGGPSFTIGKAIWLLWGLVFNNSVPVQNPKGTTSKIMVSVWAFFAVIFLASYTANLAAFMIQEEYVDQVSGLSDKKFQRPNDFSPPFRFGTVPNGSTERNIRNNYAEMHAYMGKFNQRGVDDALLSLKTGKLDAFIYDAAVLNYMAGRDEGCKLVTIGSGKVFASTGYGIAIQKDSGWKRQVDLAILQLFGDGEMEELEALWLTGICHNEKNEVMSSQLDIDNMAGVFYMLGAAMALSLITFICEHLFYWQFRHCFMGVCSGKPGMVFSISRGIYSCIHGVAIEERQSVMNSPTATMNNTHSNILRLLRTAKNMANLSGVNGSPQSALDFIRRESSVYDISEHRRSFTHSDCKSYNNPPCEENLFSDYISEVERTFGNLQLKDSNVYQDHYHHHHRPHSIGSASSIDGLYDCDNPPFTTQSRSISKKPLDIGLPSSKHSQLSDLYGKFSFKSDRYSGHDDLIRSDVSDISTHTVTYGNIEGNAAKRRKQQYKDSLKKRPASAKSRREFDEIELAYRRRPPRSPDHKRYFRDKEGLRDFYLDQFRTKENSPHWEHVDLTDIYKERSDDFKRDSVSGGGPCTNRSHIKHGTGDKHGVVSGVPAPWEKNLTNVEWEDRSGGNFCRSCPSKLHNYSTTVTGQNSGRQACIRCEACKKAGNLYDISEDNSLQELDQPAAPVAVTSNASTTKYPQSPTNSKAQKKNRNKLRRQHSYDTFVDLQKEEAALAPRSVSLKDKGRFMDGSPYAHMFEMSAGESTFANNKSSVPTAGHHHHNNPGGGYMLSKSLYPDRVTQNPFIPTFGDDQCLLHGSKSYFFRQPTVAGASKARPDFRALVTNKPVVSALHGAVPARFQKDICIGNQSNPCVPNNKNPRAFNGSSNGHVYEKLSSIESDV

Compound	IC50 [nM]
O=C(Cn1ncc2ncc(-c3ccccc3F)cc21)C1CC1 [Example 58, 1-Cyclopropyl-2-[6-(2-fluorophenyl)pyrazolo[4,3-b]pyridin-1-yl]ethanone]	148
CCC(=O)Cn1ncc2ncc(-c3cccc(C(C)(F)F)c3)cc21 [Example 31, 1-[6-[3-(1,1-Difluoroethyl)phenyl]pyrazolo[4,3-b]pyridin-1-yl]butan-2-one]	35
Cc1cc(F)ccc1-c1cnc2cnn(CC(=O)C3CC3)c2c1 [Example 72, 1-Cyclopropyl-2-[6-(4-fluoro-2-methyl-phenyl)pyrazolo[4,3-b]pyridin-1-yl]ethanone]	199
CCC(=O)Cn1ncc2ncc(-c3cccc(F)c3)cc21 [Example 29, 1-[6-(3-Fluorophenyl)pyrazolo[4,3-b]pyridin-1-yl]butan-2-one]	28
CC(C)C(=O)Cn1ncc2ncc(-c3cccc(F)c3F)cc21 [Example 48, 1-[6-(2,3-Difluorophenyl)pyrazolo[4,3-b]pyridin-1-yl]-3-methyl-butan-2-one]	172
O=C(Cn1ncc2ncc(-c3cccc(Cl)c3F)cc21)C1CC1 [Example 67, 2-[6-(3-Chloro-2-fluoro-phenyl)pyrazolo[4,3-b]pyridin-1-yl]-1-cyclopropyl-ethanone]	16
O=C(Cn1ncc2ncc(-c3ccc(F)c(C(F)F)c3)cc21)c1ccsc1 [Example 138, 2-[6-[3-(Difluoromethyl)-4-fluoro-phenyl]pyrazolo[4,3-b]pyridin-1-yl]-1-(3-thienyl)ethanone]	100
CC(C)C(=O)Cn1ncc2ncc(-c3ccc(F)c(F)c3F)cc21 [Example 54, 3-Methyl-1-[6-(2,3,4-trifluorophenyl)pyrazolo[4,3-b]pyridin-1-yl]butan-2-one]	205
CCC(=O)Cn1ncc2ncc(-c3ccc(F)c(F)c3F)cc21 [Example 43, 1-[6-(2,3,4-Trifluorophenyl)pyrazolo[4,3-b]pyridin-1-yl]butan-2-one]	28
CC[S+]([O-])Cn1ncc2ncc(-c3ccc(F)c(F)c3)cc21 (racemic) [Example 82, (RS) 6-(3,4-Difluorophenyl)-1-(ethylsulfinylmethyl)pyrazolo[4,3-b]pyridine]	893
CCC(O)Cn1nc(F)c2ncc(-c3ccc(F)c(F)c3)cc21 (racemic) [Example 94, (RS)-1-[6-(3,4-Difluorophenyl)-3-fluoro-pyrazolo[4,3-b]pyridin-1-yl]butan-2-ol]	965
COC(Cn1ncc2ncc(-c3cc(F)c(F)c(F)c3)cc21)C1CC1 (racemic) [Example 11, (R/S)-1-(2-Cyclopropyl-2-methoxy-ethyl)-6-(3,4,5-trifluorophenyl)pyrazolo[4,3-b]pyridine]	1780
OC(Cn1ncc2ncc(-c3cccc(C(F)(F)F)c3)cc21)C1CC1 (racemic) [Example 100, (RS)-1-Cyclopropyl-2-[6-[3-(trifluoromethyl)phenyl]pyrazolo[4,3-b]pyridin-1-yl]ethanol]	290
CC(C)C(=O)Cn1ncc2ncc(-c3cccc(C(F)(F)F)c3)cc21 [Example 2, 3-Methyl-1-[6-[3-(trifluoromethyl)phenyl]pyrazolo[4,3-b]pyridin-1-yl]butan-2-one]	61
CC(C)C(=O)Cn1ncc2ncc(-c3cccc(C(F)(F)F)c3F)cc21 [Example 50, 1-[6-[2-Fluoro-3-(trifluoromethyl)phenyl]pyrazolo[4,3-b]pyridin-1-yl]-3-methyl-butan-2-one]	76
Cc1cccc(-c2cnc3cnn(CC(=O)C4CC4)c3c2)c1 [Example 60, 1-Cyclopropyl-2-[6-(m-tolyl)pyrazolo[4,3-b]pyridin-1-yl]ethanone]	8

The remaining lines, values ahead:

IC50 [nM]	Compound
1840	O=C1NC[C@@H](Cn2ncc3ncc(-c4ccc(F)c(C(F)F)c4)cc32)O1 [Example 21, (S)-5-[[6-[3-(Difluoromethyl)-4-fluoro-phenyl]pyrazolo[4,3-b]pyridin-1-yl]methyl]oxazolidin-2-one]
282	CCC(O)Cn1ncc2ncc(-c3ccc(F)c(OC(F)F)c3)cc21 (racemic) [Example 92, (RS)-1-[6-[3-(Difluoromethoxy)-4-fluoro-phenyl]pyrazolo[4,3-b]pyridin-1-yl]butan-2-ol]
1890	CN1C(=O)OCC1Cn1ncc2ncc(-c3ccc(F)c(C(F)F)c3)cc21 (racemic) [Example 124, (RS)-4-[[6-[3-(Difluoromethyl)-4-fluoro-phenyl]pyrazolo[4,3-b]pyridin-1-yl]methyl]-3-methyl-oxazolidin-2-one]
19	Cc1cc(-c2cnc3cnn(CC(=O)C4CC4)c3c2)ccc1F [Example 69, 1-Cyclopropyl-2-[6-(4-fluoro-3-methyl-phenyl)pyrazolo[4,3-b]pyridin-1-yl]ethanone]
352	CN1CCC(Cn2ncc3ncc(-c4ccc(F)c(OC(F)F)c4)cc32)C1=O (racemic) [Example 119, (RS)-3-((6-(3-(Difluoromethoxy)-4-fluorophenyl)-1H-pyrazolo[4,3-b]pyridin-1-yl)methyl)-1-methylpyrrolidin-2-one]
2830	CN1C(=O)OCC1Cn1ncc2ncc(-c3ccc(F)c(OC(F)F)c3)cc21 (racemic) [Example 123, (RS)-4-((6-(3-(difluoromethoxy)-4-fluorophenyl)-1H-pyrazolo[4,3-b]pyridin-1-yl)methyl)-3-methyloxazolidin-2-one]
15	CC(=O)Cn1ncc2ncc(-c3ccc(F)c(C)c3)cc21 [Example 24, 1-[6-(4-Fluoro-3-methyl-phenyl)pyrazolo[4,3-b]pyridin-1-yl]propan-2-one]
213	CCC(F)(F)Cn1ncc2ncc(-c3ccc(F)c(OC(F)F)c3)cc21 [Example 99, 1-(2,2-Difluorobutyl)-6-[3-(difluoromethoxy)-4-fluoro-phenyl]pyrazolo[4,3-b]pyridine]
1800	CCS(=O)(=O)Cn1ncc2ncc(-c3ccc(F)c(OC(F)F)c3)cc21 [Example 13, 6-[3-(Difluoromethoxy)-4-fluoro-phenyl]-1-(ethylsulfonylmethyl)pyrazolo[4,3-b]pyridine]
272	Cc1cc(-c2cnc3cnn(C[C@@H](O)C4CC4)c3c2)ccc1F [Example 103, (S)-1-Cyclopropyl-2-[6-(4-fluoro-3-methyl-phenyl)pyrazolo[4,3-b]pyridin-1-yl]ethanol]
1210	CN1CC[C@@H](Cn2ncc3ncc(-c4ccc(F)c(C(F)F)c4)cc32)C1=O [Example 117, (S)-3-[[6-[3-(Difluoromethyl)-4-fluoro-phenyl]pyrazolo[4,3-b]pyridin-1-yl]methyl]-1-methyl-pyrrolidin-2-one]
306	O=C1NCC(Cn2ncc3ncc(-c4ccc(Cl)c(OC(F)F)c4)cc32)O1 (racemic) [Example 126, (RS)-5-[[6-[4-Chloro-3-(difluoromethoxy)phenyl]pyrazolo[4,3-b]pyridin-1-yl]methyl]oxazolidin-2-one]
146	CC[S+]([O-])Cn1ncc2ncc(-c3ccc(F)c(OC(F)F)c3)cc21 (racemic) [Example 12, (RS)-6-[3-(Difluoromethoxy)-4-fluoro-phenyl]-1-(ethylsulfinylmethyl)pyrazolo[4,3-b]pyridine]
125	CN1CC[C@H](Cn2ncc3ncc(-c4ccc(F)c(C(F)F)c4)cc32)C1=O [Example 118, (R)-3-[[6-[3-(Difluoromethyl)-4-fluoro-phenyl]pyrazolo[4,3-b]pyridin-1-yl]methyl]-1-methyl-pyrrolidin-2-one]
113	Fc1ccc(-c2cnc3cnn(CC4CCCO4)c3c2)cc1OC(F)F (racemic) [Example 112, (RS)-6-[3-(Difluoromethoxy)-4-fluoro-phenyl]-1-(tetrahydrofuran-2-ylmethyl)pyrazolo[4,3-b]pyridine]
754	COCCn1ncc2ncc(-c3ccc(F)c(C)c3)cc21 [Example 89, 6-(4-Fluoro-3-methyl-phenyl)-1-(2-methoxyethyl)pyrazolo[4,3-b]pyridine]
30	CN1C[C@H](Cn2ncc3ncc(-c4ccc(F)c(C(F)F)c4)cc32)OC1=O [Example 129]
48	CCC(O)Cn1ncc2ncc(-c3ccc(F)c(C(F)F)c3)cc21 (racemic) [Example 5, (RS)-1-[6-[3-(Difluoromethyl)-4-fluoro-phenyl]pyrazolo[4,3-b]pyridin-1-yl]butan-2-ol]
29	CC[S+]([O-])Cn1ncc2ncc(-c3ccc(F)c(C(F)F)c3)cc21 (single isomer, unassigned) [Example 84, (S*)-6-(3-(Difluoromethyl)-4-fluorophenyl)-1-((ethylsulfinyl)methyl)-1H-pyrazolo[4,3-b]pyridine]
